Assay results taken from patent publication US7972828B2, “Stabilized compositions of thermostable DNA polymerase and anionic or zwitterionic detergent” (Sigma-Aldrich Co., priority 2006, dated 2011).

What was measured:
Type in all cases: biochemical
Taq DNA polymerase [1] = target: T1, Taq DNA polymerase (Thermus aquaticus, UniProt P19821); test: Long-term stability of Taq formulations with DTT, assessed by PCR; settings: stored at 25° C. 6 to 40 days, higher concentration of DTT (0.2 mM)
T1 construct: purchased Sigma Aldrich, St. Louis, Mo
Experimental: The long-term stability of Taq formulated with either Tween 20, an anionic detergent, or a zwitterionic detergent was compared in the presence of two concentrations of DTT. Taq was formulated with 0.01% or 0.1% Tween 20, 0.1% or 1% poly(ethylene glycol) 4-nonylphenyl 3 sulfopropyl ether potassium salt, or 1% CHAPS. Each formulation was stored in the presence of 0.02 mM DTT or 0.2 mM DTT at 25° C. for periods of time ranging from 6 days to 40 days. The calculated corresponding periods for storage at −20° C. ranged from about 1.5 years to about 10 years (see FIG. 2). The ability of various formulations of Taq to support PCR was assessed using a PCR assay similar to that described in Example 1. The same primers and reactions conditions were used.
An aliquot of each reaction was resolved by agarose gel electrophoresis.

Taq DNA polymerase [2] = target: T1, Taq DNA polymerase; test: PCR detergent screening for ability to stabilize Taq DNA polymerase; settings: for Detergent supported PCR in screening reactions: detergent tested at 5%, 0.5%, 0.05%, 0.005% or 0.0005%
Experimental: A PCR assay was used to screen 47 of the potential candidate detergents for their ability to stabilize Taq DNA polymerase. The final concentration of each detergent tested was 5%, 0.5%, 0.05%, 0.005%, or 0.0005%. A forward primer (5′-[…]-3′; SEQ ID No:1) and a reverse primer (5′-[…]-3′; SEQ ID No:2) were designed to amplify a 500 bp fragment of lambda DNA. Each 10 μl reaction contained:
1 μl 10 μM Forward Primer
1 μl 10 μM Reverse Primer
0.1 μl 5 Units/μl Taq DNA polymerase
The cycling parameters were 94° C. for 15 min and 30 cycles of 94° C. for 30 sec and 70° C. for 30 sec, and a 4° C. hold. For each series of detergents tested, positive control reactions comprising 0.0005% Tween 20 were included, as well as negative control reactions without any detergent. An aliquot of each reaction was resolved by agarose gel electrophoresis.

Taq DNA polymerase [3] = target: T1, Taq DNA polymerase; test: SYBR Green quantitative real-time PCR amplification efficiency on human genomic DNA; design: key to Reaction Efficiencies CD14F: *: No amplification product; key to Ct 14-3-3 / Ct CD14F / Ct HoxA2: cycle at which fluorescence exceeds a defined threshold; settings: for Efficiency (dilutional efficiency) 14-3-3 / Efficiency (dilutional efficiency) CD14F / Efficiency (dilutional efficiency) HoxA2 / Efficiency (dilutional efficiency) PGK1: slope of serially diluted template plots
Excerpt: The efficiency of amplification by Taq DNA polymerase in the presence of Tween 20 or the anionic detergent, poly (ethylene glycol) 4-nonylphenyl 3 sulfopropyl ether potassium salt, was compared using SYBR Green quantitative real-time PCR (qPCR) to amplify four different fragments in Msel-digested or intact human genomic DNA. Each reaction comprised 1× Jumpstart Taq Ready mix (Sigma Aldrich, St. Louis, Mo.) formulated with Tween 20 or poly (ethylene glycol) 4-nonylphenyl 3 sulfopropyl ether potassium salt, 1×ROX (reference dye), 0.8×SYBR green, 0.4 μM primers. The template was serially diluted such that reactions contained 25 ng, 2.5 ng, or 0.25 ng of intact DNA or 400 ng, 40 ng, of 4 ng of digested DNA. The cycling profile was 95° C. for 3 min, 35 cycles of 95° C. for 30 sec, 55° C. for 60 sec, and 72° C. for 120 sec.
Table 2 presents the Ct values (which is the cycle that the fluorescence exceeds a defined threshold value) for each amplified product using the different templates. The ‘no template’ control reactions (for every primer pair) produced no amplicons.
The efficiency of amplification was derived from the slopes of the serially diluted template amplification plots (dilutional efficiency), and the percent efficiency is also presented in Table 2.
Individual reaction efficiencies were calculated in an effort to explore the nature of the dilutional efficiency effects. […] That is, reactions with lower amounts of template were less efficiently primed or initiated in the presence of Tween 20 than in the presence of the anionic surfactant. Once the amplification process began, however, the reaction efficiencies were detergent independent.

Taq DNA polymerase [4] = target: T1, Taq DNA polymerase; test: Specificity of PCR amplification (BsrGIO, SacIO fragments) on agarose gel; settings: 352 bp and 360 bp fragments, HEK293 genomic DNA
Experimental: To determine whether amplification in the presence of the anionic detergent, poly (ethylene glycol) 4-nonylphenyl 3-sulfopropyl ether potassium salt, produced less non-specific products, formulations comprising Tween 20 were compared to an anionic detergent formulation. Primers (see Table 4) were designed to amplify a 352 by fragment (BsrGIO) and a 360 by fragment (SacIO) in human genomic DNA. The reactions (50 μl) contained […] HEK293 genomic DNA, […], 1×PCR Buffer, 0.2 mM dNTPs, 0.05 U/μL Taq, and 4% DMSO. Thermocycling parameters were 94° C. for 2 min, 30 cycles of 94° C. for 20 sec, 58° C. for 30 sec, and 72° C. for 80 sec, a final extension at 72° C. for 10 min, and a 4° C. hold.
Aliquots of each sample were run on an agarose gel (FIG. 3). […] This finding raises the possibility that there may be a multimolecular complex comprising template, primer, detergent, and enzyme, and it is possible that the anionic detergent increased the coulombic repulsion between template/primers and the […].

T1 sequence (P19821 whole entry): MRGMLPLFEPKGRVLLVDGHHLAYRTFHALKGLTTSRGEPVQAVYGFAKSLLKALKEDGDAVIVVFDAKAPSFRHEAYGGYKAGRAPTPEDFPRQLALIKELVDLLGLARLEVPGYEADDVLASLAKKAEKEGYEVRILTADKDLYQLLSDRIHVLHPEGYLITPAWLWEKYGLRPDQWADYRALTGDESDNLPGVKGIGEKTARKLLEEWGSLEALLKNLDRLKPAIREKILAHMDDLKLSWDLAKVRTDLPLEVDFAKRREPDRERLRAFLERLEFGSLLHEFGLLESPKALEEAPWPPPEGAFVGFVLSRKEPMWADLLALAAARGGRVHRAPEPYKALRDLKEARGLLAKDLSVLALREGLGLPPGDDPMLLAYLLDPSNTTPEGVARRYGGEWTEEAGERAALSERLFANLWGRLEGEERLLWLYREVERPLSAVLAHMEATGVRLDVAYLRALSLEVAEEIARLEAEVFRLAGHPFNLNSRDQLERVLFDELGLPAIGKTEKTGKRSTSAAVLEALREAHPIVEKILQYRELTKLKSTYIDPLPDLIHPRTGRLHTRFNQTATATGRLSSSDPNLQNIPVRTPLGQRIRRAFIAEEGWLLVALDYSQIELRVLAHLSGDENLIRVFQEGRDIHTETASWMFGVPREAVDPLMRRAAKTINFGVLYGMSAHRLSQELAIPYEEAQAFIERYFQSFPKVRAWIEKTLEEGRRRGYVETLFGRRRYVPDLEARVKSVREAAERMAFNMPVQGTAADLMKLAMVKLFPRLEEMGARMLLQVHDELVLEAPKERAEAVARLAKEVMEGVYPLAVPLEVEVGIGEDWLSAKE

C[C@H](CCC(=O)NCCC[N+](C)(C)CCCS(=O)(=O)[O-])[C@H]1CC[C@H]2[C@@H]3[C@H](O)C[C@@H]4C[C@H](O)CC[C@]4(C)[C@@]3(C)C[C@H](O)[C@]12C [CHAPS, 3-[(3-cholamidopropyl)dimethylammonio]-1-propanesulfonate] was tested, and the “Ability of stored Taq formulation to support PCR” value (Taq DNA polymerase [1]) was “substantially able to support PCR” and the “Detergent supported PCR in screening reactions” value (“Detergent supported PCR” below) (Taq DNA polymerase [2]) was “supported PCR”.

With “polyoxyethylene(150)dinonylphenyl ether [Igepal® DM-970]” the “Detergent supported PCR” value (Taq DNA polymerase [2]) was “supported PCR”.

“poly (ethylene glycol) 4-nonylphenyl 3-sulfopropyl ether potassium salt [Anionic]” was tested, and the “Ability of stored Taq formulation to support PCR” value (Taq DNA polymerase [1]) was “able to support PCR at all the times tested”, the “Detergent supported PCR” value (Taq DNA polymerase [2]) was “supported PCR” and the “Ct 14-3-3” value (Taq DNA polymerase [3]; Intact DNA, 0.25 ng) was 30.8. The “Ct CD14F” value (Taq DNA polymerase [3]; Intact DNA, 0.25 ng) was “No Ct”, the “Ct HoxA2” value (Taq DNA polymerase [3]; Intact DNA, 0.25 ng) was 30.41 and the “Ct PGK1” value (Taq DNA polymerase [3]; Intact DNA, 0.25 ng) was 31.59. For the same compound, the “Ct 14-3-3” value (Taq DNA polymerase [3]; Intact DNA, 2.5 ng) was 27.88, the “Ct CD14F” value (Taq DNA polymerase [3]; Intact DNA, 2.5 ng) was 33.98 and the “Ct HoxA2” value (Taq DNA polymerase [3]; Intact DNA, 2.5 ng) was 26.92. For the same compound, the “Ct PGK1” value (Taq DNA polymerase [3]; Intact DNA, 2.5 ng) was 28.33, the “Ct 14-3-3” value (Taq DNA polymerase [3]; Intact DNA, 25 ng) was 24.31 and the “Ct CD14F” value (Taq DNA polymerase [3]; Intact DNA, 25 ng) was 28.72. The “Ct HoxA2” value (Taq DNA polymerase [3]; Intact DNA, 25 ng) was 23.33, the “Ct PGK1” value (Taq DNA polymerase [3]; Intact DNA, 25 ng) was 23.62 and the “Reaction Efficiencies 14-3-3” value (Taq DNA polymerase [3]; Intact DNA, 0.25) was 98%. For the same compound, the “Reaction Efficiencies CD14F” value (Taq DNA polymerase [3]; Intact DNA, 0.25) was “*”, the “Reaction Efficiencies HoxA2” value (Taq DNA polymerase [3]; Intact DNA, 0.25) was 102% and the “Reaction Efficiencies PGK1” value (Taq DNA polymerase [3]; Intact DNA, 0.25) was 97%. For the same compound, the “Reaction Efficiencies 14-3-3” value (Taq DNA polymerase [3]; Intact DNA, 2.5) was 115%, the “Reaction Efficiencies CD14F” value (Taq DNA polymerase [3]; Intact DNA, 2.5) was 124% and the “Reaction Efficiencies HoxA2” value (Taq DNA polymerase [3]; Intact DNA, 2.5) was 102%. For the same compound, the “Reaction Efficiencies PGK1” value (Taq DNA polymerase [3]; Intact DNA, 2.5) was 101%, the “Reaction Efficiencies 14-3-3” value (Taq DNA polymerase [3]; Intact DNA, 25) was 102% and the “Reaction Efficiencies CD14F” value (Taq DNA polymerase [3]; Intact DNA, 25) was 99%. For the same compound, the “Reaction Efficiencies HoxA2” value (Taq DNA polymerase [3]; Intact DNA, 25) was 104%, the “Reaction Efficiencies PGK1” value (Taq DNA polymerase [3]; Intact DNA, 25) was 98% and the “Efficiency (dilutional efficiency) 14-3-3” value (Taq DNA polymerase [3]; Intact DNA) was 105%. The “Efficiency (dilutional efficiency) CD14F” value (Taq DNA polymerase [3]; Intact DNA) was 26%, the “Efficiency (dilutional efficiency) HoxA2” value (Taq DNA polymerase [3]; Intact DNA) was 86% and the “Efficiency (dilutional efficiency) PGK1” value (Taq DNA polymerase [3]; Intact DNA) was 63%. The “Ct 14-3-3” value (Taq DNA polymerase [3]; Mse-I digested DNA, 4 ng) was 28.65, the “Ct CD14F” value (Taq DNA polymerase [3]; Mse-I digested DNA, 4 ng) was “No Ct” and the “Ct HoxA2” value (Taq DNA polymerase [3]; Mse-I digested DNA, 4 ng) was 29.96. The “Ct PGK1” value (Taq DNA polymerase [3]; Mse-I digested DNA, 4 ng) was 31.38, the “Ct 14-3-3” value (Taq DNA polymerase [3]; Mse-I digested DNA, 40 ng) was 24.86 and the “Ct CD14F” value (Taq DNA polymerase [3]; Mse-I digested DNA, 40 ng) was 34.72. The “Ct HoxA2” value (Taq DNA polymerase [3]; Mse-I digested DNA, 40 ng) was 26.47, the “Ct PGK1” value (Taq DNA polymerase [3]; Mse-I digested DNA, 40 ng) was 27.95 and the “Ct 14-3-3” value (Taq DNA polymerase [3]; Mse-I digested DNA, 400 ng) was 21.17. For the same compound, the “Ct CD14F” value (Taq DNA polymerase [3]; Mse-I digested DNA, 400 ng) was 30.15, the “Ct HoxA2” value (Taq DNA polymerase [3]; Mse-I digested DNA, 400 ng) was 22.27 and the “Ct PGK1” value (Taq DNA polymerase [3]; Mse-I digested DNA, 400 ng) was 23.17. For the same compound, the “Efficiency (dilutional efficiency) 14-3-3” value (Taq DNA polymerase [3]; Mse-I digested DNA) was 75%, the “Efficiency (dilutional efficiency) CD14F” value (Taq DNA polymerase [3]; Mse-I digested DNA) was 42% and the “Efficiency (dilutional efficiency) HoxA2” value (Taq DNA polymerase [3]; Mse-I digested DNA) was 69%. The “Efficiency (dilutional efficiency) PGK1” value (Taq DNA polymerase [3]; Mse-I digested DNA) was 58%, the “Reaction Efficiencies 14-3-3” value (Taq DNA polymerase [3]; MseI digested DNA, 4 ng) was 103% and the “Reaction Efficiencies CD14F” value (Taq DNA polymerase [3]; MseI digested DNA, 4 ng) was “*”. The “Reaction Efficiencies HoxA2” value (Taq DNA polymerase [3]; MseI digested DNA, 4 ng) was 99%, the “Reaction Efficiencies PGK1” value (Taq DNA polymerase [3]; MseI digested DNA, 4 ng) was 97% and the “Reaction Efficiencies 14-3-3” value (Taq DNA polymerase [3]; MseI digested DNA, 40 ng) was 107%. The “Reaction Efficiencies CD14F” value (Taq DNA polymerase [3]; MseI digested DNA, 40 ng) was 92%, the “Reaction Efficiencies HoxA2” value (Taq DNA polymerase [3]; MseI digested DNA, 40 ng) was 101% and the “Reaction Efficiencies PGK1” value (Taq DNA polymerase [3]; MseI digested DNA, 40 ng) was 102%. For the same compound, the “Reaction Efficiencies 14-3-3” value (Taq DNA polymerase [3]; MseI digested DNA, 400 ng) was 101%, the “Reaction Efficiencies CD14F” value (Taq DNA polymerase [3]; MseI digested DNA, 400 ng) was 99% and the “Reaction Efficiencies HoxA2” value (Taq DNA polymerase [3]; MseI digested DNA, 400 ng) was 100%. For the same compound, the “Reaction Efficiencies PGK1” value (Taq DNA polymerase [3]; MseI digested DNA, 400 ng) was 97%, the “Average efficiency of the three amplicons with efficiencies for both formulations” value (Taq DNA polymerase [3]; digested templates) was 67.3% and the “Efficiency compared with the corresponding Tween 20 formulation” value (Taq DNA polymerase [3]; each amplicon) was “higher efficiency”. For the same compound, the “Ct values compared with Tween 20-containing amplification mixes” value (Taq DNA polymerase [3]; higher dilutions of template) was “lower Ct values at higher dilutions”, the “Average efficiency of the three amplicons with efficiencies for both formulations” value (Taq DNA polymerase [3]; intact templates) was 84.7% and the “Non-specific, secondary amplification products compared with standard Tween 20 formulations” value (Taq DNA polymerase [4]) was “fewer non-specific, secondary amplification products”.

In the case of “nonyl nonoxynol-15 phosphate [Rhodafac RM710]”, the “Detergent supported PCR” value (Taq DNA polymerase [2]) is reported as “supported PCR” and the “Amplified products (500 bp lambda DNA fragment) on agarose gel” value (Taq DNA polymerase [2]; low concentration of the detergent) is reported as “Amplified products were present”.

poly(ethylene glycol) monolaurate was tested, and the “Detergent supported PCR” value (Taq DNA polymerase [2]) was “supported PCR”.

C[C@H](CCC(=O)NCCC[N+](C)(C)CC(O)CS(=O)(=O)[O-])[C@H]1CC[C@H]2[C@@H]3[C@H](O)C[C@@H]4C[C@H](O)CC[C@]4(C)[C@H]3C[C@H](O)[C@]12C (stereo partly shown) [CHAPSO, 3-[(3-cholamidopropyl)dimethylammonio]-2-hydroxy-1-propanesulfonate] was tested, and the “Detergent supported PCR” value (Taq DNA polymerase [2]) was “supported PCR”.
